Legend:
[1] = tested on: patients with pain; settings: meta-analysis of 12 PEA pain studies; placebo 21%; cited from earlier work
[2] = Pharmacokinetics of PEA after intravenous administration in male Sprague-Dawley rats; type: in vivo, Sprague-Dawley rat; settings: for AUC(0-t): AUClast; for MRT last: MRTlast
Experimental: Rats were housed one per cage. […] Each study group was dosing in triplicate.
Samples were maintained chilled throughout processing.
Clearance (CL) was calculated from dose/AUC.

[3] = in vivo; settings: male, Sprague-Dawley, rat, plasma, po, 10 mg/kg
Experimental: PEA was also dosed intravenously at 1 mg/kg. Blood samples were collected up to 8 hours post-dose, and PEA and PEA-prodrug plasma concentrations were determined with a qualified LC-MS/MS method. Pharmacokinetic analysis was conducted by a non-compartmental model using Phoenix WinNonlin v.6.4 software.
The IV dosing solution was prepared fresh on the day of dosing at 0.5 mg/mL in a vehicle comprised of 10% solutol HS15, 10% n-methylpyrrolidone (NMP), 10% polyethylene glycol 400 (PEG400), and 70% water. For PO dosing, torpac capsules were loaded with an appropriate amount of PEA, PEA-prodrug, or normast powder. […] The prodrug dose in group 5 was the maximum amount of powder that would fit into a single capsule.
The pharmacokinetics of PEA and the PEA-prodrug were evaluated in fasted male Sprague-Dawley rats. Rats were housed one per cage. Each rat was fitted with a jugular vein cannula (JVC) for blood collection. Rats intended for IV dosing were fitted with an additional JVC for dosing. Each study group was dosing in triplicate. Rats were fasted for a minimum of twelve hours prior to dosing. Food was returned at four hours post dosing. Animals had free access to water throughout the study.
Blood samples (˜300 μL) were collected from the rats via a JVC and placed into chilled polypropylene tubes containing sodium heparin as an anticoagulant, and 30 μL of 0.5 M citric acid. Samples were maintained chilled throughout processing. Blood samples were centrifuged at 4° C. and 3,000 g for 5 minutes. Plasma (˜150 μL) was then transferred to a chilled, labeled polypropylene tube containing 15 μL of 10% formic acid, placed on dry ice, and stored in a freezer maintained at −60° C. to −80° C.
Pharmacokinetic parameters were determined with Phoenix WinNonlin (v6.4) software using a non-compartmental model. Maximum plasma concentrations (C0) after IV dosing were estimated by extrapolation of the first two time points back to t=0. […] Area under the time concentration curve (AUC) was calculated using the linear trapezoidal rule with calculation to the last quantifiable data point, and with extrapolation to infinity if applicable. […] Mean residence time, MRT, was calculated by dividing the area under the moment curve (AUMC) by the AUC. Clearance (CL) was calculated from dose/AUC. Steady-state volume of distribution (Vss) was calculated from CL*MRT (mean residence time). Bioavailability was determined by dividing the individual PO dose normalized AUClast values by the average IV AUClast value. Any samples below the limit of quantitation were treated as zero for pharmacokinetic data analysis.
Measured concentrations of PEA in plasma samples were corrected by subtracting the concentration of PEA measured in the pre-dose samples. […] Any corrected values that were negative are reported as not determined (ND).

[4] = male, Sprague-Dawley, rat, in vivo, iv, 1 mg/kg, Mean
[5] = male, Sprague-Dawley, rat, in vivo, iv, 1 mg/kg, individual rats
[6] = male, Sprague-Dawley, rat, in vivo, iv, 1 mg/kg, Plasma concentration of PEA, Mean
[7] = male, Sprague-Dawley, rat, in vivo, iv, 1 mg/kg, Plasma concentration of PEA, individual rats

## CCCCCCCCCCCCCCCC(=O)NCCO [PEA, palmitoylethanolamide]
[1]
  treated patients achieving VAS scores <=3: 67%
[2]; PEA IV 1 mg/kg, extrapolated to t = 0
  C0, Mean: 251 ng/mL
[2]; male, Sprague-Dawley, rat, in vivo, iv, 1 mg/kg
  Tmax: 0 h
[2]; [4]
  AUC(0-t): 62.1 ng·h/mL
  AUC(0-inf): 68.4 ng·h/mL
  MRT last: 24.1 min
[2]; [5]
  AUC(0-t): 53.3 ng·h/mL
  AUC(0-inf): 57.6 ng·h/mL
  MRT last: 23.9 min
[2]; male, Sprague-Dawley, rat, in vivo, iv, 1 mg/kg, CL (average clearance rate), Mean
  clearance: 252 mL/min/kg
[2]; male, Sprague-Dawley, rat, in vivo, iv, 1 mg/kg, CL, individual rats
  clearance: 290 mL/min/kg
[2]; [6]
  concentration at 0.083 hr: 144 ng/mL
  concentration at 0.25 hr: 48.2 ng/mL
  concentration at 0.5 hr: 31.2 ng/mL
  concentration at 1 hr: 11.2 ng/mL
  concentration at 2 hr: 6.91 ng/mL
[2]; [7]
  concentration at 0.083 hr: 122 ng/mL
  concentration at 0.25 hr: 47.2 ng/mL
  concentration at 0.5 hr: 27.5 ng/mL
  concentration at 2 hr: 5.2 ng/mL
[2]; male, Sprague-Dawley, rat, in vivo, iv, 1 mg/kg, Vss (average volume of distribution), Mean
  Vd: 9.12 ± 0.832 L/kg
[2]; male, Sprague-Dawley, rat, in vivo, iv, 1 mg/kg, Vss, individual rats
  Vd: 10 L/kg
[2]; male, Sprague-Dawley, rat, in vivo, iv, 1 mg/kg, t1/2 (average half-life), Mean
  half-life: 35.8 ± 9.9 min
[2]; male, Sprague-Dawley, rat, in vivo, iv, 1 mg/kg, t1/2, individual rats
  half-life: 33.8 min
[3]
  Cmax: 5.3 ng/mL
  Tmax: 120 min
  concentration at 1 hr: 2.34 ng/mL
  concentration at 2 hr: 5.3 ng/mL

Reference: patent publication US11547681B2, “N-acylethanolamide derivatives and uses thereof” (ELIEM THERAPEUTICS, INC., priority 2016, dated 2023)
